Test results: patent publication US20260199424A1, “METHODS AND COMPOSITIONS FOR IMPROVING VISUAL FUNCTION IN OCULAR DISEASES AND DISORDERS” (priority 2022, published 2026)
Values joined by “and” are separate entries in the source; they are usually repeats but may differ in a detail not shown here. Identical values can stand only once. “Also recorded” adds a separate entry of the source. Like-named read-outs stand apart in the source and are kept apart here. No end group written: not given here.

Assays:
[1] = tested on: patients having macular degeneration characterized by geographic atrophy (GA); assay: Study in geographic atrophy (GA) patients, BCVA; assay type: in vivo, human; conditions: single IVT injection, doses 25 ug and 50 ug as printed
Procedure: Baseline best corrected visual acuity (BCVA) was measured prior to treatment with ONL1204.

[2] = minipig, in vivo
Procedure: Seven animals received a repeat IVT dose at 2 mg/mL (0.1 mg/eye) on Day 90. […] Vitreous humor, retina, and choroid were collected on days 1, 7, 14, 28, and 88.

[3] = tested on: patients with progressing open angle glaucoma; assay: Multi-dose study in progressing open-angle glaucoma, Humphrey Visual Field analysis; assay type: in vivo, human
Procedure: Visual function metrics were measured at over two screening time points, a baseline, and at about days 90, 177, 180, and 270. Measures for visual function included visual field analysis pre- and post-treatment with ONL1204.
Patients were part of the study for approximately 39 weeks (270 days). Randomization was be stratified by HVF mean deviation (−5.00 dB to >−10.00 dB and ≤−10.00 dB to −15.00 dB).
FIGS. 3-5 show study and fellow eye data for the changes in mean visual field analysis of clusters in sham, 50 ug, and 100 ug patients. The data represents mean data for each cluster (10 clusters per patient). […] Each cluster is denoted by a rate of change in sensitivity, in dB/yr. The Baseline sensitivity of each cluster is denoted in dB. Positive values indicate an improvement in visual field and/or improving rate of visual field change. FIGS. 6-8 show study and fellow eye data for the changes in mean visual field analysis (unclustered, point specific, pointwise) in sham, 50 ug, and 100 ug patients.

[4] = tested on: patients with retinal detachment; assay: Retinal detachment study, adverse events; assay type: in vivo, human
Procedure: The primary objective was to determine the Maximum Tolerated Dose (MTD) of a peptide an amino acid sequence […] and the structure of Formula III (ONL1204) and select doses for further clinical studies. During the study, ocular fluid samples were also collected at the time of study drug injection and at the time of vitrectomy. These samples were used for pharmacokinetic and pharmacodynamic analyses.
(§1) Patients were enrolled in ascending dose groups. […] Safety visits were conducted one day post-injection and as deemed necessary by the examining Investigator (at least 1 visit every 3 days) until Visit 3. At Visit 3 (3+ days post-injection, in accordance with standard of care) patients underwent surgical repair of their retinal detachment with vitrectomy (with or without scleral buckling) and gas or oil tamponade. At the time of surgery, an undiluted vitreous sample was collected for pharmacokinetic and pharmacodynamics analyses, and an aqueous sample was collected for pharmacodynamic analysis. Additional safety visits were targeted for and generally conducted one day post-surgery, 7 days (±3 days) post-surgery, 14 (±4 days) days post-surgery, and Weeks 6, 9, 12 (±7 days each), and Week 24 (±14 days; study exit).
Planned determinations of dose limiting toxicity included consideration of the following events: • 1.

[5] = tested on: patients with retinal detachment; assay: Retinal detachment study, best corrected visual acuity; assay type: in vivo, human; parameters: key to BCVA Snellen study eye baseline / BCVA Snellen study eye week 9: HM = hand motion; CF = counting fingers; conditions: for BCVA logMAR study eye week 6 / BCVA Snellen study eye week 6: week 6, individual patients; for BCVA logMAR study eye week 9 / BCVA Snellen study eye week 9: week 9, individual patients; for BCVA logMAR study eye week 24 / BCVA Snellen study eye week 24: week 24, individual patients
Procedure: (§2) During the study, ocular fluid samples were also collected at the time of study drug injection and at the time of vitrectomy. These samples were used for pharmacokinetic and pharmacodynamic analyses.
as §1
Therefore, a volume of 0.05 or 0.1 mL was injected into the study eye. Patient participation was approximately 24 weeks (6 months): a single injection treatment and 24 weeks of follow-up.

[6] = tested on: IL1RA; assay: Retinal detachment study, cytokine change from administration to surgery: IL1RA; assay type: in vivo, human; conditions: for Percent Change (%) from time of administering ONL1204 to surgery IL1RA: individual patients
Procedure: as §2, §1

[7] = tested on: male rabbit NaIO3 model; assay: Sodium iodate (NaIO3) challenge study, lesion size (area of RPE depigmentation); assay type: in vivo; conditions: for lesion area versus negative control: NaIO3 challenge Day 4; for mean lesion size smaller compared to negative controls: NaIO3 challenge Day 59
Procedure: Animals were anesthetized with isoflurane vapors to effect. […] No reflux was noted on the dosing record.
Animals were anesthetized with isoflurane vapors to effect.
The resulting area was then measured.

[8] = tested on: ICAM1; assay: Retinal detachment study, cytokine change from administration to surgery: ICAM1; assay type: in vivo, human; conditions: for Percent Change (%) from time of administering ONL1204 to surgery ICAM1: individual patients
Procedure: as §2, §1

[9] = tested on: IL18; assay: Retinal detachment study, cytokine change from administration to surgery: IL18; assay type: in vivo, human; conditions: for Percent Change (%) from time of administering ONL1204 to surgery IL18: individual patients
Procedure: as §2, §1

[10] = rabbit, in vivo
Procedure: Body weights were measured and recorded prior to first dose, approximately weekly (for surviving animals through Week 12), and prior to euthanasia. […] Ophthalmic examinations were performed using the Hackett-McDonald Scoring System on Days 0, 7, 14, 28, 90, 97, 151, and 168. Pharmacokinetic analyses were performed on the vitreous humor concentration data.
Seven animals received a repeat IVT dose at 2 mg/mL (0.1 mg/eye) on Day 90.
Vitreous humor, retina, and choroid were collected on days 1, 7, 14, 28, 42, 61, 90, 97, 151, and 168. Eyes were enucleated, snap frozen using liquid nitrogen, and kept on dry ice or frozen at −80° C. until dissected for collection of aqueous humor, vitreous humor, retina, choroid, iris-ciliary body (ICB), and lens.
To homogenize ocular tissue samples, weighed amounts of control bovine vitreous humor, retina, and choroid were homogenized in USA scientific impact resistant microtubes containing 2.8 mm ceramic beads. Unknown rabbit vitreous humor, retina, and choroid samples were homogenized in USA scientific impact resistant microtubes containing 2.8 mm ceramic beads. […]

[11] = tested on: MCP1; assay: Retinal detachment study, cytokine change from administration to surgery: MCP1; assay type: in vivo, human; conditions: for Percent Change (%) from time of administering ONL1204 to surgery MCP1: individual patients
Procedure: as §2, §1

Substance: HHIYLGAVNYIY-NH2 [ONL1204]
- visual outcomes (visual acuity, BCVA) versus baseline [1]: improvement in visual outcomes
- detection in the vitreous humor [2]: detected in the vitreous humor across all time points analyzed
- visual field outcomes as measured by Humphrey Visual Field (HVF) analysis ([3]; 50 ug and 100 ug, two IVT injections (day 0, day 90), compared to sham): improvement in visual field outcomes; also recorded: improvement in visual field was generally observed
- visual field benefit in patients having lower baseline sensitivities ([3]; baseline sensitivity equal to or less than −5): benefits of ONL1204 treatment were also observed
- severity of adverse events ([4]; 25 ug and 50 ug, study procedure or surgery related): Most were mild
- patients experiencing adverse events ([4]; 4 patients 25 ug and 4 patients 50 ug, single IVT): 7 out of 8
- total adverse events ([4]; 8 patients, 25 ug and 50 ug): 20
- BCVA logMAR study eye week 6 ([5]; 25 ug (dose per Table 1)): 0.34 logMAR and 0.18 logMAR and 0.82 logMAR (2×)
- BCVA logMAR study eye week 9 ([5]; 25 ug (dose per Table 1)): 0.14 logMAR and 0.12 logMAR and 0.64 logMAR and 0.78 logMAR
- BCVA logMAR study eye week 24 ([5]; 25 ug (dose per Table 1)): 0.5 logMAR and 0.2 logMAR and 0.68 logMAR and 0.7 logMAR
- BCVA Snellen study eye baseline ([5]; 25 ug single IVT, baseline, individual patients): 20/160 and 20/100 and 20/200 and HM
- BCVA Snellen study eye week 6 ([5]; 25 ug single IVT): 20/40 and 20/32 and 20/125 (2×)
- BCVA Snellen study eye week 9 ([5]; 25 ug single IVT): 20/25 (2×) and 20/100 and 20/125
- BCVA Snellen study eye week 24 ([5]; 25 ug single IVT): 20/60 and 20/32 and 20/100 (2×)
- BCVA logMAR study eye baseline ([5]; 50 ug (dose per Table 1), baseline, individual patients): 3 logMAR and 2 logMAR (3×)
- BCVA logMAR study eye week 6 ([5]; 50 ug (dose per Table 1)): 0.46 logMAR and 0.38 logMAR (2×) and 0.52 logMAR
- BCVA logMAR study eye week 9 ([5]; 50 ug (dose per Table 1)): 0.6 logMAR and 0.56 logMAR and 0.34 logMAR
- BCVA logMAR study eye week 24 ([5]; 50 ug (dose per Table 1)): 0.76 logMAR and 0.2 logMAR and 0.64 logMAR and 0.34 logMAR
- BCVA Snellen study eye baseline ([5]; 50 ug single IVT, baseline, individual patients): HM and CF (3×)
- BCVA Snellen study eye week 6 ([5]; 50 ug single IVT): 20/50 (2×) and 20/80
- BCVA Snellen study eye week 9 ([5]; 50 ug single IVT): 20/80 (2×) and 20/50
- BCVA Snellen study eye week 24 ([5]; 50 ug single IVT): 20/125 and 20/32 and 20/80 and 20/50
- BCVA logMAR study eye week 6 ([5]; 100 ug (dose per Table 1)): 0.8 logMAR and 0.7 logMAR and 1 logMAR and 1.6 logMAR
- BCVA logMAR study eye week 24 ([5]; 100 ug (dose per Table 1)): 0.5 logMAR and 0.7 logMAR and 1.3 logMAR and 0.6 logMAR
- BCVA Snellen study eye baseline ([5]; 100 ug single IVT, baseline, individual patients): HM (2×) and 20/100 and 20/200
- BCVA Snellen study eye week 6 ([5]; 100 ug single IVT): 20/125 and 20/100 and 20/200 and 20/800
- BCVA Snellen study eye week 9 ([5]; 100 ug single IVT): 20/200 and 20/80 and HM and 20/400
- BCVA Snellen study eye week 24 ([5]; 100 ug single IVT): 20/63 and 20/100 and 20/400 and 20/80
- BCVA logMAR study eye week 6 ([5]; 200 ug (dose per Table 1)): 0.4 logMAR and 0.7 logMAR
- BCVA logMAR study eye week 9 ([5]; 200 ug (dose per Table 1)): 0.36 logMAR and 0.6 logMAR
- BCVA logMAR study eye week 24 ([5]; 200 ug (dose per Table 1)): 0.2 logMAR
- BCVA Snellen study eye baseline ([5]; 200 ug single IVT, baseline, individual patients): 20/160 and HM
- BCVA Snellen study eye week 6 ([5]; 200 ug single IVT): 20/50 and 20/100
- BCVA Snellen study eye week 9 ([5]; 200 ug single IVT): 20/40 and 20/80
- BCVA Snellen study eye week 24 ([5]; 200 ug single IVT): 20/32
- summary statistics for all patients, mean (BCVA logMAR), Week 9 ([5]; all doses, n 13, week 9): 0.78
- summary statistics for all patients, mean (BCVA logMAR), Week 24 ([5]; all doses, n 13, week 24): 0.56
- summary statistics for all patients, mean (BCVA logMAR), Baseline ([5]; all doses, n 14, baseline): 1.86
- summary statistics for all patients, mean (BCVA logMAR), Week 6 ([5]; all doses, n 14, week 6): 0.65
- visual outcomes (visual acuity) ([5]; all patients receiving 25 ug and 50 ug): improvement in visual outcomes
- Percent Change (%) from time of administering ONL1204 to surgery IL1RA ([6]; 25 ug (dose per Table 1)): −51.0% and −57.4% and −99.3%
- Percent Change (%) from time of administering ONL1204 to surgery IL1RA ([6]; 50 ug (dose per Table 1)): −60.0% and −94.4% and −88.3%
- Percent Change (%) from time of administering ONL1204 to surgery IL1RA ([6]; 100 ug (dose per Table 1)): 8.5% and −46.1% and −65.2%
- Percent Change (%) from time of administering ONL1204 to surgery IL1RA ([6]; 200 ug (dose per Table 1)): −26.3%
- mean change in IL1RA from administration to surgery ([6]; all patients of Table 7): mean decrease
- mean lesion size across challenge time points ([7]; 25 ug and 100 ug per eye IVT Day 0): substantive reduction in mean lesion size
- lesion area versus negative control ([7]; 25 ug per eye IVT Day 0): significantly lower than negative control
- mean lesion size smaller compared to negative controls ([7]; 25 ug per eye IVT Day 0): 40%
- lesion area versus negative control ([7]; 100 ug per eye IVT Day 0): significantly lower than negative control
- lesion size versus negative controls and 25 ug ([7]; 100 ug per eye IVT Day 0, NaIO3 challenge Day 14): significantly smaller lesion size
- lesion size versus negative control and 25 ug ([7]; 100 ug per eye IVT Day 0, NaIO3 challenge Day 28): significantly smaller lesion size
- mean lesion size smaller compared to negative controls ([7]; 100 ug per eye IVT Day 0): 50%
- Percent Change (%) from time of administering ONL1204 to surgery ICAM1 ([8]; 25 ug (dose per Table 1)): −82.4% and −42.7% and −86.2%
- Percent Change (%) from time of administering ONL1204 to surgery ICAM1 ([8]; 50 ug (dose per Table 1)): 64.0% and −100% and 0%
- Percent Change (%) from time of administering ONL1204 to surgery ICAM1 ([8]; 100 ug (dose per Table 1)): −43.9% and 24.9% and 22.7%
- Percent Change (%) from time of administering ONL1204 to surgery ICAM1 ([8]; 200 ug (dose per Table 1)): 0%
- mean change in ICAM from administration to surgery ([8]; all patients of Table 7): mean decrease
- Percent Change (%) from time of administering ONL1204 to surgery IL18 ([9]; 25 ug (dose per Table 1)): −60.5% and −22.5% and −50.8%
- Percent Change (%) from time of administering ONL1204 to surgery IL18 ([9]; 50 ug (dose per Table 1)): 0% (2×) and −100%
- Percent Change (%) from time of administering ONL1204 to surgery IL18 ([9]; 100 ug (dose per Table 1)): −33.7% and 0% and 66.0%
- Percent Change (%) from time of administering ONL1204 to surgery IL18 ([9]; 200 ug (dose per Table 1)): 0%
- mean change in IL18 from administration to surgery ([9]; all patients of Table 7): mean decrease
- detection in retinal tissue and vitreous humor [10]: detected in retinal tissue as well as the vitreous humor after 168 days
- detection in the vitreous humor [10]: detected in the vitreous humor across all time points analyzed
- Percent Change (%) from time of administering ONL1204 to surgery MCP1 ([11]; 25 ug (dose per Table 1)): −41.4% and −6.02% and −35.9%
- Percent Change (%) from time of administering ONL1204 to surgery MCP1 ([11]; 50 ug (dose per Table 1)): −3.12% and −48.4% and 11.6%
- Percent Change (%) from time of administering ONL1204 to surgery MCP1 ([11]; 100 ug (dose per Table 1)): −9.5% and 78.5% and 500%
- Percent Change (%) from time of administering ONL1204 to surgery MCP1 ([11]; 200 ug (dose per Table 1)): −2.4%
- mean change in MCP1 from administration to surgery ([11]; all patients of Table 7): mean decrease
